In patent US20260125371A1, “METHOD FOR INHIBITING CLOSTRIDIOIDES DIFFICILE SPORE GERMINATION” (UNIVERSITY OF NOTRE DAME DU LAC, priority 2022, published 2026):
Values after ≈ are worked out from the molar mass of the structure shown. Read-outs that look alike come from different tables or passages of the source.

Columns and labels:
[1] = test system: C. difficile ATCC 43255; details: cited from earlier work
[2] = test system: S. aureus; details: cited from earlier work
[3] = test system: S. epidermidis ATCC 35547; details: cited from earlier work
[4] = test system: S. haemolyticus ATCC 29970; details: cited from earlier work
[5] = test system: S. oralis ATCC 9811; details: cited from earlier work
[6] = test system: S. pyogenes ATCC 49399; details: cited from earlier work
[7] = test system: B. cereus ATCC 13061; details: cited from earlier work
[8] = test system: B. licheniformis ATCC 12759; details: cited from earlier work
[9] = test system: E. faecalis; details: cited from earlier work
[10] = test system: E. faecium; details: cited from earlier work
[11] = test system: Corynebacterium spp. HM-784; details: cited from earlier work
[12] = test system: Lactobacillus reuteri HM-102; details: cited from earlier work
[13] = test system: Lactobacillus gasseri HM-644; details: cited from earlier work
[14] = test system: K. pneumoniae ATCC700603; details: cited from earlier work
[15] = test system: A. baumanii ATCC17961; details: cited from earlier work
[16] = test system: P. aeruginosa ATCC27853; details: cited from earlier work
[17] = test system: E. aerogenes ATCC35029; details: cited from earlier work
[18] = test system: E. coli ATCC25922; details: cited from earlier work
[19] = test system: Gram-negative bacteria; details: organisms of Table 2; data from earlier publication; cited from earlier work
[20] = test system: P. aeruginosa ATCC27853; assay: MIC against P. aeruginosa; format: cell-based; details: Pseudomonas aeruginosa; P. aeruginosa ATCC27853; read-out: MIC
[21] = test system: Gram-negative bacteria; format: cell-based
[22] = test system: C. difficile ATCC 43255; assay: Minimal-bactericidal concentration (MBC); format: cell-based, Clostridioides difficile; details: MBC/MIC≤4 indicates bactericidal
[23] = test system: Clostridioides difficile infection; details: CDI patients; cited from earlier work
[24] = test system: S. pyogenes ATCC 49399; assay: MIC against S. pyogenes; format: cell-based; details: Streptococcus pyogenes, ATCC49399
[25] = test system: B. cereus ATCC 13061; assay: MIC against B. cereus; format: cell-based; details: Bacillus cereus, ATCC13061
[26] = test system: E. faecalis; assay: MIC against E. faecalis strains; format: cell-based; details: Enterococcus faecalis
[27] = test system: C. difficile ATCC 43255; assay: Time-kill assay; format: cell-based, Clostridioides difficile
[28] = test system: C. difficile ATCC 43255 vegetative cells; assay: Mode of action by scanning electron microscopy (SEM); details: 8× MIC for 24 h
[29] = test system: extended panel of Gram-positive bacteria; assay: MIC range over extended panel of Gram-positive bacteria; format: cell-based; details: other than C. difficile
[30] = C. difficile ATCC 43255, earlier publication

In the case of `FC(F)(F)c1ccc(Oc2ccc(-c3noc(-c4ccc5[nH]ccc5c4)n3)cc2)cc1` [Compound 1], the MIC ([1]; C. difficile ATCC43255) is listed as 2 µg/mL (≈ 4.75 µM), the MIC [1, 30] is listed as 4 µg/mL (≈ 9.49 µM) and the MIC ([1]; strain ATCC43255) is listed as 2 µg/mL (≈ 4.75 µM). The “MIC against MRSA” value ([2]; MRSA) was 2 µg/mL (≈ 4.75 µM), the MIC ([2]; S. aureus ATCC 27660) was 4 µg/mL (≈ 9.49 µM) and the MIC ([2]; S. aureus ATCC 29213) was 4 µg/mL (≈ 9.49 µM). For the same molecule, the MIC ([2]; S. aureus NRS100 (COL)) was 2 µg/mL (≈ 4.75 µM), the MIC ([2]; S. aureus NRS119) was 2 µg/mL (≈ 4.75 µM) and the MIC ([2]; S. aureus NRS120) was 2 µg/mL (≈ 4.75 µM). The MIC ([2]; S. aureus VRS1) was 2 µg/mL (≈ 4.75 µM), the MIC ([2]; S. aureus VRS2) was 2 µg/mL (≈ 4.75 µM) and the MIC [3] was 2 µg/mL (≈ 4.75 µM). For the same molecule, the MIC [4] was 8 µg/mL (≈ 19 µM), the MIC [5] was 128 µg/mL (≈ 304 µM) and the MIC [6] was 64 µg/mL (≈ 152 µM). The MIC [7] was 16 µg/mL (≈ 38 µM), the MIC [8] was 8 µg/mL (≈ 19 µM) and the MIC ([9]; E. faecalis 99 (Van R)) was 4 µg/mL (≈ 9.49 µM). The MIC ([9]; E. faecalis 201 (Van S)) was 4 µg/mL (≈ 9.49 µM), the MIC ([9]; E. faecalis ATCC 29212) was 8 µg/mL (≈ 19 µM) and the MIC ([10]; E. faecium 106 (Van R)) was 2 µg/mL (≈ 4.75 µM). The MIC ([10]; E. faecium 119-39A (Van S)) was 1 µg/mL (≈ 2.37 µM), the MIC ([10]; E. faecium NCTC 7171) was 2 µg/mL (≈ 4.75 µM) and the MIC [11] was 2 µg/mL (≈ 4.75 µM). The MIC [12] was greater than 128 µg/mL, the MIC [13] was greater than 128 µg/mL and the MIC [14] was greater than 128 µg/mL. For the same molecule, the MIC [15] was greater than 128 µg/mL, the MIC [16] was greater than 128 µg/mL and the MIC [17] was greater than 128 µg/mL. The MIC [18] was greater than 128 µg/mL and the “activity against Gram-negative organisms” value [19] was “no activity”.

For `CCc1c(Cl)c(O)c(Cl)c(O)c1C(=O)O[C@H]1[C@H](O)[C@H](OC)[C@H](OC/C2=C\C=C\C[C@H](O)/C(C)=C/[C@H](CC)[C@@H](O[C@@H]3OC(C)(C)[C@@H](OC(=O)C(C)C)[C@H](O)[C@@H]3O)/C(C)=C/C(C)=C/C[C@@H]([C@@H](C)O)OC2=O)O[C@@H]1C` [FDX, fidaxomicin], the MIC [20] was greater than 128 µg/mL, the “activity against Gram-negative organisms” value [21] was “no activity” and the bactericidal or bacteriostatic [22] was “bactericidal”. The MIC ([1]; C. difficile ATCC43255) was 0.06 µg/mL (≈ 0.0567 µM), the MIC ([1]; strain ATCC43255) was 0.06 µg/mL (≈ 0.0567 µM) and the MIC [11] was less than 0.06 µg/mL. The MIC [12] was greater than 32 µg/mL, the MIC [13] was 2 µg/mL (≈ 1.89 µM) and the recurrence of infection [23] was 15%.

`Cc1ncc([N+](=O)[O-])n1CCO` [MTZ, metronidazole] gave an MIC [24] greater than 128 µg/mL, an MIC [25] greater than 256 µg/mL and an MIC [26] greater than 256 µg/mL. For the same molecule, the MIC ([26]; ATCC29212) was greater than 256 µg/mL, the MIC [20] was greater than 128 µg/mL and the “activity against Gram-negative organisms” value [21] was “no activity”. For the same molecule, the bactericidal or bacteriostatic [22] was “bactericidal”, the “reduction in bacterial growth (time-kill)” value (from here on “reduction”) ([27]; 8× MIC) was 4 log 10 and the MIC [11] was greater than 32 µg/mL. For the same molecule, the MIC [12] was greater than 32 µg/mL, the MIC [13] was greater than 32 µg/mL and the recurrence of infection [23] was 27%. The “effect on vegetative cells by SEM” value [28] was “No obvious effect”.

For `Oc1ccc(-c2nc(-c3ccc(OC4CCCC4)cc3)no2)cc1` [Compound 2], the MIC ([1]; C. difficile ATCC43255) is given as 2 µg/mL (≈ 6.2 µM), the MIC [1, 30] is given as 2 µg/mL (≈ 6.2 µM) and the MIC ([1]; strain ATCC43255) is given as 2 µg/mL (≈ 6.2 µM). The MIC ([2]; S. aureus ATCC 27660) was 2 to 4 µg/mL, the MIC ([2]; S. aureus ATCC 29213) was 2 µg/mL (≈ 6.2 µM) and the MIC ([2]; S. aureus NRS100 (COL)) was 1 µg/mL (≈ 3.1 µM). For the same molecule, the MIC ([2]; S. aureus NRS119) was 1 to 2 µg/mL, the MIC ([2]; S. aureus NRS120) was 2 µg/mL (≈ 6.2 µM) and the MIC ([2]; S. aureus VRS1) was 2 µg/mL (≈ 6.2 µM). The MIC ([2]; S. aureus VRS2) was 2 µg/mL (≈ 6.2 µM), the MIC [3] was 2 µg/mL (≈ 6.2 µM) and the MIC [4] was 2 µg/mL (≈ 6.2 µM). For the same molecule, the MIC [5] was greater than 128 µg/mL, the MIC [6] was greater than 128 µg/mL and the MIC [7] was 2 µg/mL (≈ 6.2 µM). For the same molecule, the MIC [8] was 4 µg/mL (≈ 12.4 µM), the MIC ([9]; E. faecalis 99 (Van R)) was 4 µg/mL (≈ 12.4 µM) and the MIC ([9]; E. faecalis 201 (Van S)) was 4 µg/mL (≈ 12.4 µM). The MIC ([9]; E. faecalis ATCC 29212) was 4 µg/mL (≈ 12.4 µM), the MIC ([10]; E. faecium 106 (Van R)) was 2 µg/mL (≈ 6.2 µM) and the MIC ([10]; E. faecium 119-39A (Van S)) was 2 µg/mL (≈ 6.2 µM). The MIC ([10]; E. faecium NCTC 7171) was 4 µg/mL (≈ 12.4 µM), the MIC [11] was 0.5 µg/mL (≈ 1.55 µM) and the MIC [12] was greater than 128 µg/mL. For the same molecule, the MIC [13] was greater than 128 µg/mL, the MIC [14] was greater than 128 µg/mL and the MIC [15] was greater than 128 µg/mL. For the same molecule, the MIC [16] was greater than 128 µg/mL, the MIC [17] was greater than 128 µg/mL and the MIC [18] was greater than 128 µg/mL. For the same molecule, the “activity against Gram-negative organisms” value [19] was “no activity”.

`O=[N+]([O-])c1cnc(-c2nc(-c3ccc(OC4CCCC4)cc3)no2)[nH]1` [Compound 57, 3-(4-(Cyclopentyloxy)phenyl)-5-(4-nitro-1H-imidazol-2-yl)-1,2,4-oxadiazole] gave an MIC [24] greater than 128 µg/mL, an MIC ([26]; E. faecalis 99 (Van R), read-out: MIC) of 128 µg/mL (≈ 375 µM) and an MIC [20] greater than 128 µg/mL. The “activity against Gram-positive bacteria” value [29] was “not active”, the “activity against Gram-negative organisms” value [21] was “no activity” and the bactericidal or bacteriostatic [22] was “bactericidal”. The “reduction” value ([27]; 4× MIC, 12 h) was no less than 3 log10, the “reduction” value ([27]; 8× MIC) was 4 log 10 and the “reduction” value ([27]; all concentrations: 1×, 2×, 4×, 8× MIC) was “Four-log10 reduction”. The “effect on vegetative cells by SEM” value [28] was “damage to the cell wall”.
